# Test results reported in publication PMC5845004, “Novel (p)ppGpp Binding and Metabolizing Proteins of Escherichia coli” (mBio, 2018).
# T1: UshA (Escherichia coli, UniProt P07024)
# T1 sequence (P07024 26-550): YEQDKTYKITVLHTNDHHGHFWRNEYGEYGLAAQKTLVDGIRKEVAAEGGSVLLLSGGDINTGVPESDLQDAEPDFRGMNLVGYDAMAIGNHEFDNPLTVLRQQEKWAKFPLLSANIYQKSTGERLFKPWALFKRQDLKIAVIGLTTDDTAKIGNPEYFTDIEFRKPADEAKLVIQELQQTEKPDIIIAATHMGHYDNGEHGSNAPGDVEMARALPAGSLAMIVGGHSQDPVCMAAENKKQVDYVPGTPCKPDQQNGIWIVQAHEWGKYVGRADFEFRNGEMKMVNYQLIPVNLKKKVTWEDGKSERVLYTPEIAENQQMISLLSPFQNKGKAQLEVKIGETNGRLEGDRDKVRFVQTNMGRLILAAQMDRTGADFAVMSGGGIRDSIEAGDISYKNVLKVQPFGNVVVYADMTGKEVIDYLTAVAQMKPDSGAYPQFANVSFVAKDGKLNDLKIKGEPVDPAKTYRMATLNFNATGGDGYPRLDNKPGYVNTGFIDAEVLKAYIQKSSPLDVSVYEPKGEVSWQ
# Legend:
# [1] = molecular target: T2, NudG (Escherichia coli, UniProt P77788); assay: DRaCALA competition assay, lysate with overproduced NudG; type: binding, E. coli; conditions: whole-cell lysate, 2 nM hot (p)ppGpp, 100 µM cold competitor
# T2 construct: expressed in transfected cells; host or cells: E. coli ASKA collection strain, IPTG-induced, whole-cell lysate
# Description: (§1) Bacterial cells were collected and frozen at −80°C.
# [2] = molecular target: T2, NudG; assay: In vitro cleavage assay (TLC), NudG; type: biochemical, E. coli; conditions: 1 µM NudG, 10 nM hot ppGpp, 100 µM competitor, 30°C
# Description: (§2) The purified His6-MutT and His6-NudG proteins were tested for their relative levels of cleavage of ppGpp compared to those seen with their native substrates. For this, a 1 μM concentration of each protein and a 10 nM concentration of [α-^32P]ppGpp were used together with 100 μM concentrations of cold competitors [ppGpp, GTP, ATP, 8-oxo-(d)GTP, 2-hydroxyl-(d)ATP] or 50 mM EDTA in buffer B. The samples were incubated at 30°C for 10 min and for 1 h before the reactions were stopped by adding 50 mM EDTA. The cleavage products were resolved by TLC as described above. The purified His6-NadR and His6-TrmE proteins were tested for their cleavage of both GTP and ppGpp. For cleavage of GTP, 10 μM concentrations of His6-MBP, His6-TrmE, and 20 μM His6-NadR proteins were used with 2 nM [α-^32P]GTP and 100 μM cold GTP in buffer B. For cleavage of ppGpp, 10 μM concentrations of His6-TrmE, His6-MBP, and His6-NadR proteins were used with 10 nM [α-^32P]ppGpp in buffer B. Of note, for His6-TrmE, another reaction was also performed in buffer B supplemented with 100 mM KCl. The reactions were performed at RT for 10 min and were stopped by adding 17% formic acid. The cleavage products were resolved by TLC as described above.
# (§3) A 20 μM concentration of each of purified proteins MutT, NudG, NadR, TrmE, and MBP (as a negative control) was incubated with 100 μM ppGpp in buffer B (containing 40 mM Tris [pH 7.5], 100 mM NaCl, and 10 mM MgCl2) for 20 min at room temperature. Samples were snap-frozen on dry ice and analyzed with UPLC-MS afterward. All samples and buffers were stored at −80°C, thawed on ice, and kept at 4°C during analysis. For the analysis, a UPLC-quadrupole time of flight (UPLC-qTOF) method (Waters) was used. Analysis conditions were as follows: column, zic-HILIC (Merck Millipore) (150 by 2.1 mm, […], gradient elution, flow rate set to 0.3 ml/min); mobile phase A, 10 mM ammonium acetate (pH 5); mobile phase B, 90% acetonitrile with 10 mM ammonium acetate (pH 5). The gradient was set up as follows: min 0 to 2, 80% B; min 2 to 16, 80% B to 50% B; hold until min 20; injection volume, 4 µl. The detection conditions were as follows: photodiode array detector (PDA), […] (evaluated at 260 nm); MS, ionization; electrospray ionization (ESI+), scan, 200 to 800 m/z with lock mass correction. Analytes were identified by their accurate mass and retention time data for a known standard dissolved in used buffer (for the chemicals of the same nominal masses). These standards were either synthesized and their structures confirmed by nuclear magnetic resonance (NMR) (for ppGp, pGpp, and pGp) or purchased (ppGpp was purchased from Jena Biocsience and GTP from Sigma-Aldrich).
# [3] = molecular target: T3, MutT (Escherichia coli, UniProt P08337); assay: In vitro cleavage assay (TLC), MutT; type: biochemical, E. coli; conditions: 1 µM MutT, 10 nM hot ppGpp, 100 µM competitor, 30°C, up to 1 h
# Description: as §2, §3
# [4] = molecular target: T3, MutT; conditions: whole-cell lysate, 2 nM hot (p)ppGpp, 100 µM cold competitor
# Description: DRaCALA screening was performed essentially as described before ([39]) with minor modifications. Briefly, ASKA collection strains were inoculated into 1.5 ml LB broth with 25 μg/ml chloramphenicol in deep 96-well plates (Greiner) and grown over night at 30°C. IPTG (1 mM) was added the next morning to induce protein expression at 30°C for 6 h. Bacterial cells were collected and frozen at −80°C. To lyse cells, 150 μl buffer B with 2 mM phenylmethylsulfonyl fluoride (PMSF), 40 μg/ml DNase 1, and 0.5 mg/ml lysozyme was used to resuspend cell pellets and then subjected to three freeze-thaw cycles before Benzonase (Sigma) (2.5 U/well) was added to reduce lysate viscosity. A 20-μl volume of lysate was transferred into a 96-well V-bottom plate (Sterilin), incubated at 37°C for 15 min, and placed on ice. […] Membranes were dried for 10 min at RT, and binding signals were exposed to a BAS IP screen (GE Healthcare) and detected by the use of a Typhoon FLA-7000 PhosphorImager.
# For competition assays, purified proteins at the specified concentrations were incubated with 2 nM [α-^32P]ppGpp or [α-^32P]pppGpp in the presence of 100 μM competitor nucleotides in binding buffer B. The reaction mixtures were incubated for 5 min at RT, 2 µl was spotted onto nitrocellulose membranes, and the values corresponding to the bound fractions were determined.
# [5] = molecular target: T4, YgdH (Escherichia coli, UniProt P0ADR8); assay: DRaCALA competition assay, YgdH; type: binding, E. coli; conditions: 50 µM YgdH, 100 µM cold competitor, without or with 1.5 mM magnesium
# Description: (§4) For Kd measurements by DRaCALA, 2-fold serial dilutions from the highest possible concentrations of each purified protein were prepared in binding buffer B, and approximately 2 nM concentrations of α-^32P-labeled ppGpp, pppGpp, GTP, and GDP were added. The mixtures were incubated for 5 min at RT before spotting of 2 µl of the reaction mixtures onto nitrocellulose membranes. […] For competition assays, purified proteins at the specified concentrations were incubated with 2 nM [α-^32P]ppGpp or [α-^32P]pppGpp in the presence of 100 μM competitor nucleotides in binding buffer B. The reaction mixtures were incubated for 5 min at RT, 2 µl was spotted onto nitrocellulose membranes, and the values corresponding to the bound fractions were determined. EDTA was added at excess concentrations as specified for each case.
# [6] = molecular target: T1, UshA; assay: DRaCALA competition assay, lysate with overexpressed UshA; type: binding; conditions: cell lysate, 2 nM hot (p)ppGpp, 100 µM cold competitor
# Description: as §1
# [7] = molecular target: Der (Escherichia coli, UniProt P0A6P5); assay: DRaCALA Kd determination, purified Der; type: binding, E. coli; conditions: 2 nM 32P-labeled ligand, read-out: apparent Kd, Der
# Description: as §4
# [8] = molecular target: SaDer (Staphylococcus aureus, UniProt A6QH24); assay: DRaCALA Kd determination, SaDer; type: binding, S. aureus
# Description: (§5) For Kd measurements by DRaCALA, 2-fold serial dilutions from the highest possible concentrations of each purified protein were prepared in binding buffer B, and approximately 2 nM concentrations of α-^32P-labeled ppGpp, pppGpp, GTP, and GDP were added. The mixtures were incubated for 5 min at RT before spotting of 2 µl of the reaction mixtures onto nitrocellulose membranes. The fractions of bound ligand and the apparent Kd values were calculated as previously described ([37]).
# [9] = molecular target: T4, YgdH; assay: DRaCALA binding and Kd determination, purified YgdH; design: species or system E. coli; conditions: DRaCALA, in the presence of EDTA (without Mg2+); read-out: Kd, YgdH + EDTA (converted)
# Description: as §4
# [10] = molecular target: T5, TrmE (Escherichia coli, UniProt P25522); assay: DRaCALA Kd determination, purified TrmE; type: binding, E. coli; conditions: in the presence of magnesium, read-out: apparent Kd, TrmE
# Description: as §4
# [11] = molecular target: RF3 (PrfC) (Escherichia coli, UniProt P0A7I4); assay: DRaCALA Kd determination, purified RF3; type: binding, E. coli; conditions: 2 nM 32P-labeled ligand, read-out: apparent Kd, RF3 (PrfC)
# Description: as §5
# [12] = molecular target: T5, TrmE; assay: In vitro cleavage assay (TLC), TrmE; type: biochemical, E. coli; conditions: 10 µM TrmE, buffer B, with 100 mM potassium where stated, 10 min
# Description: as §2
# A 20 μM concentration of each of purified proteins MutT, NudG, NadR, TrmE, and MBP (as a negative control) was incubated with 100 μM ppGpp in buffer B (containing 40 mM Tris [pH 7.5], 100 mM NaCl, and 10 mM MgCl2) for 20 min at room temperature. Samples were snap-frozen on dry ice and analyzed with UPLC-MS afterward. All samples and buffers were stored at −80°C, thawed on ice, and kept at 4°C during analysis. For the analysis, a UPLC-quadrupole time of flight (UPLC-qTOF) method (Waters) was used. […] The detection conditions were as follows: photodiode array detector (PDA), […] (evaluated at 260 nm); MS, ionization; electrospray ionization (ESI+), scan, 200 to 800 m/z with lock mass correction. […]
# [13] = molecular target: HypB (Escherichia coli, UniProt P0AAN3); assay: DRaCALA Kd determination, purified HypB; type: binding, E. coli; conditions: 2 nM 32P-labeled ligand, read-out: apparent Kd, HypB
# Description: as §4
# [14] = molecular target: Hpt (Escherichia coli, UniProt P0A9M2); assay: DRaCALA competition assay, Hpt; type: binding, E. coli; conditions: 20 µM Hpt, 2 nM hot ppGpp, 100 µM cold competitor
# Description: For Kd measurements by DRaCALA, 2-fold serial dilutions from the highest possible concentrations of each purified protein were prepared in binding buffer B, and approximately 2 nM concentrations of α-^32P-labeled ppGpp, pppGpp, GTP, and GDP were added. The mixtures were incubated for 5 min at RT before spotting of 2 µl of the reaction mixtures onto nitrocellulose membranes. The fractions of bound ligand and the apparent Kd values were calculated as previously described ([37]). For competition assays, purified proteins at the specified concentrations were incubated with 2 nM [α-^32P]ppGpp or [α-^32P]pppGpp in the presence of 100 μM competitor nucleotides in binding buffer B. The reaction mixtures were incubated for 5 min at RT, 2 µl was spotted onto nitrocellulose membranes, and the values corresponding to the bound fractions were determined. EDTA was added at excess concentrations as specified for each case.
# [15] = molecular target: the molecule itself; assay: SEC; size exclusion FPLC profile of purified His6-YgdH (53 kDa) compared with protein standards
# T3 sequence (P08337 whole entry): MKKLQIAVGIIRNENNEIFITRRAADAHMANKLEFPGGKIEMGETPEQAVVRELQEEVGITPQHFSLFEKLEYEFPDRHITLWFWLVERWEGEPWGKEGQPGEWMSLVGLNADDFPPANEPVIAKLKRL
# T2 sequence (P77788 whole entry): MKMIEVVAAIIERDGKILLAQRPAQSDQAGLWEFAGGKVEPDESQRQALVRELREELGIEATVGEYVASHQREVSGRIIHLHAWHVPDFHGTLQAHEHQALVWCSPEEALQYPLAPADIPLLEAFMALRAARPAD
# Chain of Der (P0A6P5 whole entry): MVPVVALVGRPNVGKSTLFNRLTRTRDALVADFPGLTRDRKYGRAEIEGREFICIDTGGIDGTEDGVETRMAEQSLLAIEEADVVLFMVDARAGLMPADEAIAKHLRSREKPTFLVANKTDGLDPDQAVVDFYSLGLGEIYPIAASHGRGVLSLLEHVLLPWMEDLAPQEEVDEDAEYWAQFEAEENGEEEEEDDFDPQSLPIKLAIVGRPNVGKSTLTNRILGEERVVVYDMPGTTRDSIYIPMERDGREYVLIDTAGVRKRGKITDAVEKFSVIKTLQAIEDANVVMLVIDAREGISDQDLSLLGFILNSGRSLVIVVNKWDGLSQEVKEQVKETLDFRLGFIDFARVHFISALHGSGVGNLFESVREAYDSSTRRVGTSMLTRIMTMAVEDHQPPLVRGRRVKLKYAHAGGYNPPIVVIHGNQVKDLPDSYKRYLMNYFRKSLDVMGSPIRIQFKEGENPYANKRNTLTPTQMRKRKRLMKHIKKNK
# T5 sequence (P25522 whole entry): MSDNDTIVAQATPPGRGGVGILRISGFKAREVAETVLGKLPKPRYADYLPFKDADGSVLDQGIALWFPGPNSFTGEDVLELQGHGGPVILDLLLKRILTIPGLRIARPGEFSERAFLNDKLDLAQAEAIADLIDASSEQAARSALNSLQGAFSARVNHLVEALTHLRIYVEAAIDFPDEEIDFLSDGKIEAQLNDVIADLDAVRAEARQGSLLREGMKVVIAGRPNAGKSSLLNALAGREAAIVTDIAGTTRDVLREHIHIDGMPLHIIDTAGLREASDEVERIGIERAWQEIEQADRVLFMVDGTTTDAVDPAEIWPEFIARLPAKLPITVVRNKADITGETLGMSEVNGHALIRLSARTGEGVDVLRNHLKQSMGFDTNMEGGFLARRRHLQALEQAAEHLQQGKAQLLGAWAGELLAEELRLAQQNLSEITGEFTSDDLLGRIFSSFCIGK
# Chain of Hpt (P0A9M2 whole entry): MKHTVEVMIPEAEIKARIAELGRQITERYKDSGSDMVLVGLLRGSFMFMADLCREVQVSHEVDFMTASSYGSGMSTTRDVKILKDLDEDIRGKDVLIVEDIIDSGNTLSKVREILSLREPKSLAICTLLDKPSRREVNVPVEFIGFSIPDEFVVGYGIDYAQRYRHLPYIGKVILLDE
# Chain of HypB (P0AAN3 whole entry): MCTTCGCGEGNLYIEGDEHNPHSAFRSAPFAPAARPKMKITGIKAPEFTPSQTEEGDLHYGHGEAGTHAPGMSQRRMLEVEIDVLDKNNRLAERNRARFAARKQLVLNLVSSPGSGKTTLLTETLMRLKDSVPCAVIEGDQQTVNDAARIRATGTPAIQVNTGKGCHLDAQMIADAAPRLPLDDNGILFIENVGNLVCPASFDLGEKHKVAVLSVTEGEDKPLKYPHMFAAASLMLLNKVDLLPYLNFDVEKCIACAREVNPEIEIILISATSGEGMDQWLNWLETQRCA
# Chain of RF3 (PrfC) (P0A7I4 whole entry): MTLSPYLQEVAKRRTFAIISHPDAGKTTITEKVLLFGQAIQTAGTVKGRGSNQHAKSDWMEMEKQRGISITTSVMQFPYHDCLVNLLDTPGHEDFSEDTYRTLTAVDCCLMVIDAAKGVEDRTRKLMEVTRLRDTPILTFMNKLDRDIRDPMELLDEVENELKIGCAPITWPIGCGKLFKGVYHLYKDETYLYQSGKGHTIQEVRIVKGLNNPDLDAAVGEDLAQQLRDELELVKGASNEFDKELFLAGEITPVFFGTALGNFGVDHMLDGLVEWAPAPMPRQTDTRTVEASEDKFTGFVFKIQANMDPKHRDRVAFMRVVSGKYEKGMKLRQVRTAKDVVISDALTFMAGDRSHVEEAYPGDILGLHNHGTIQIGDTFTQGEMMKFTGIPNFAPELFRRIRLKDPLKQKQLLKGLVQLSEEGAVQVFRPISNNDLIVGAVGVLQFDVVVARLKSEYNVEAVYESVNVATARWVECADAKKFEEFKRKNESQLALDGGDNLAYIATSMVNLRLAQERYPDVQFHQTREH
# Chain of SaDer (A6QH24 whole entry): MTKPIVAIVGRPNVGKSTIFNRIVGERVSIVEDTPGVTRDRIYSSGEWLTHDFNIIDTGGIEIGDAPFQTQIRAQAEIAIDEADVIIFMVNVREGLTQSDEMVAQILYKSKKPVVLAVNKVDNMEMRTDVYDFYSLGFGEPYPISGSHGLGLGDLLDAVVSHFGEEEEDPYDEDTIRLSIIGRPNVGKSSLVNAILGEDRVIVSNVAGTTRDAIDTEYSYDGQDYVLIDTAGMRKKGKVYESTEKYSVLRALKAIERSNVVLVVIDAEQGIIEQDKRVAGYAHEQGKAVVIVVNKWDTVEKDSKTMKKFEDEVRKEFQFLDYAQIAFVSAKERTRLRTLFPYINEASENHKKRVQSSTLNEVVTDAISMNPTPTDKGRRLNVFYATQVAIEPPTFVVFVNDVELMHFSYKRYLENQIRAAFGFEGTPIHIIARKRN
molecule,measurement,setting,value
2-OH-(d)ATP,competition for NudG-bound (p)ppGpp,[1],comparable to unlabeled ppGpp
same,inhibition of [α-32P]ppGpp cleavage by NudG,[2],slightly better than ppGpp
8-oxo-(d)GTP,inhibition of [α-32P]ppGpp cleavage by MutT,[3],totally inhibited
same,competition for MutT-bound (p)ppGpp,[4],completely outcompete
Nc1ncnc2c1ncn2[C@@H]1O[C@H](COP(=O)(O)O)[C@@H](O)[C@H]1O [AMP],competition for [α-32P]ppGpp binding to YgdH by YgdH substrates,[5],none of them could outcompete ppGpp
Nc1ncnc2c1ncn2[C@@H]1O[C@H](COP(=O)(O)OP(=O)(O)OP(=O)(O)O)[C@@H](O)[C@H]1O [ATP],competition for NudG-bound (p)ppGpp,[1],did not compete
Nc1nc2c(ncn2[C@@H]2O[C@H](COP(=O)(O)OP(=O)(O)O)[C@@H](O)[C@H]2O)c(=O)[nH]1 [GDP],competition for NudG-bound (p)ppGpp,[1],but not the structurally very similar GTP and GDP
same,competition for UshA-bound (p)ppGpp,[6],but not the structurally very similar GTP and GDP
same,Kd,[7],1.3 ± 0.1 µM
Nc1nc2c(ncn2[C@@H]2O[C@H](COP(=O)(O)O)[C@@H](O)[C@H]2O)c(=O)[nH]1 [GMP],competition for [α-32P]ppGpp binding to YgdH by YgdH substrates,[5],none of them could outcompete ppGpp
Nc1nc2c(ncn2[C@@H]2O[C@H](COP(=O)(O)OP(=O)(O)OP(=O)(O)O)[C@@H](O)[C@H]2O)c(=O)[nH]1 [GTP],Kd,[8],3.5 ± 0.8 µM
same,competition for NudG-bound (p)ppGpp,[1],but not the structurally very similar GTP and GDP
same,competition for UshA-bound (p)ppGpp,[6],but not the structurally very similar GTP and GDP
same,Kd,[9],21.4 ± 11.5 µM
same,Kd,[10],4.6 ± 1.1 µM
same,Kd,[11],29.3 ± 9.8 µM
same,Kd,[7],13.7 ± 7.1 µM
same,inhibition of [α-32P]ppGpp cleavage by MutT,[3],very limited inhibitory effects
same,cleavage by TrmE,[12],converted almost all GTP
same,Kd,[13],9 ± 1.8 µM
"O=P(O)(O)OC[C@H]1OC(OP(=O)(O)OP(=O)(O)O)[C@H](O)[C@@H]1O (stereo partly shown) [PRPP, phosphoribosyl pyrophosphate]",competition for bound [α-32P]ppGpp on Hpt,[14],partially outcompete
"YgdH (ECK2790), His6-YgdH (enzyme, E. coli K-12, UniProt P0ADR8 1-454, looked up, YgdH (ECK2790), nucleotide nucleosidase of E. coli K-12, expressed from the ASKA plasmid library (pCA24N vector); The ASKA clone carries the gene of E. coli K-12; The printed size of His6-YgdH is 53 kDa; source: E. coli ASKA collection AG1 strain, purified (Ni-NTA, size exclusion chromatography); not shown: His6, N-terminal, kept) MITHISPLGSMDMLSQLEVDMLKRTASSDLYQLFRNCSLAVLNSGSLTDNSKELLSRFENFDINVLRRERGVKLELINPPEEAFVDGRIIRALQANLFAVLRDILFVYGQIHNTVRFPNLNLDNSVHITNLVFSILRNARALHVGEAPNMVVCWGGHSINENEYLYARRVGNQLGLRELNICTGCGPGAMEAPMKGAAVGHAQQRYKDSRFIGMTEPSIIAAEPPNPLVNELIIMPDIEKRLEAFVRIAHGIIIFPGGVGTAEELLYLLGILMNPANKDQVLPLILTGPKESADYFRVLDEFVVHTLGENARRHYRIIIDDAAEVARQMKKSMPLVKENRRDTGDAYSFNWSMRIAPDLQMPFEPSHENMANLKLYPDQPVEVLAADLRRAFSGIVAGNVKEVGIRAIEEFGPYKINGDKEIMRRMDDLLQGFVAQHRMKLPGSAYIPCYEICT",stoichiometry N,[15],4
